Laboratory results published in BigSolDB 2.1.

[NH3+]C1CCCCC1.[S-]c1nc2ccccc2s1
solubility (mole fraction)
Settings	303.15 K	308.15 K	313.15 K	318.15 K	323.15 K	328.15 K	333.15 K	338.15 K	343.15 K	348.15 K
in 1,4-dioxane	0.000208	0.000291	0.000418	0.000608	0.000793	0.00105	0.00141	0.00169	0.00217	0.00266
in MIBK	0.000389	0.000506	0.000672	0.00085	0.00111	0.00141	0.00177	0.00215	0.00252	0.00306
in toluene	2e-05	4.26e-05	5.64e-05	6.78e-05	8.02e-05	0.000121	0.000175	0.00026	0.000344	0.000421
in water	1.32e-05	1.95e-05	2.59e-05	3.24e-05	4e-05	5.4e-05	7.55e-05	8.97e-05	0.000124	0.000164
